Measured values: patent US10155750B2, “Amidoethyl azole orexin receptor antagonists” (Merck Sharp & Dohme Corp., priority 2014, dated 2018)

What was measured:
human orexin-2 receptor = human orexin-2 receptor (Homo sapiens (Human), UniProt O43614); test: FLIPR Ca2+ flux assay, hOX2R; assay type: cell-based; settings: CHO cells expressing the receptor; agonist 70 pM Ala-6,12 human orexin-A
Experimental: The utility of the compounds in accordance with the present invention as orexin receptor OX1R and/or OX2R antagonists may be readily determined without undue experimentation by methodology well known in the art, including the “FLIPR Ca^2+ Flux Assay” (Okumura et al., Biochem. Biophys. Res. Comm. 280:976-981, 2001). In a typical experiment the OX1 and OX2 receptor antagonistic activity of the compounds of the present invention was determined in accordance with the following experimental method. For intracellular calcium measurements, Chinese hamster ovary (CHO) cells expressing the rat orexin-1 receptor or the human orexin-2 receptor, are grown in Iscove's modified DMEM containing 2 mM L-glutamine, […], 1% hypoxanthine-thymidine supplement, 100 U/ml penicillin, 100 μg/ml streptomycin and 10% heat-inactivated fetal calf serum (FCS). The cells are seeded at 20,000 cells/well into Becton-Dickinson black 384-well clear bottom sterile plates coated with poly-D-lysine. All reagents were from GIBCO-Invitrogen Corp. The seeded plates are incubated overnight at 37° C. and 5% CO2. Ala-6,12 human orexin-A as the agonist is prepared as a 1 mM stock solution in 1% bovine serum albumin (BSA) and diluted in assay buffer (HBSS containing 20 mM HEPES, 0.1% BSA and 2.5 mM probenecid, pH7.4) for use in the assay at a final concentration of 70 pM. Test compounds are prepared as 10 mM stock solution in DMSO, then diluted in 384-well plates, first in DMSO, then assay buffer. On the day of the assay, cells are washed 3 times with 100 μl assay buffer and then incubated for 60 min (37° C., 5% CO2) in 60 μl assay buffer containing 1 μM Fluo-4AM ester, 0.02% pluronic acid, and 1% BSA. The dye loading solution is then aspirated and cells are washed 3 times with 100 μl assay buffer. 30 μl of that same buffer is left in each well. Within the Fluorescent Imaging Plate Reader (FLIPR, Molecular Devices), test compounds are added to the plate in a volume of 25 μl, incubated for 5 min and finally 25 μl of agonist is added. Fluorescence is measured for each well at 1 second intervals for 5 minutes and the height of each fluorescence peak is compared to the height of the fluorescence peak induced by 70 pM Ala-6,12 orexin-A with buffer in place of antagonist. For each antagonist, IC50 value (the concentration of compound needed to inhibit 50% of the agonist response) is determined. Alternatively, compound potency can be assessed by a radioligand binding assay (described in Bergman et. al. Bioorg. Med. Chem. Lett. 2008, 18, 1425-1430) in which the inhibition constant (Ki) is determined in membranes prepared from CHO cells expressing either the OX1 or OX2 receptor. The intrinsic orexin receptor antagonist activity of a compound which may be used in the present invention may be determined by these assays.

[1] = molecular target: hOX1R (orexin-1 receptor) (Homo sapiens, UniProt O43613); test: FLIPR Ca2+ flux assay, hOX1R; assay type: cell-based; settings: CHO cells expressing the receptor; agonist 70 pM Ala-6,12 human orexin-A

human orexin-2 receptor, sequence (O43614 whole entry): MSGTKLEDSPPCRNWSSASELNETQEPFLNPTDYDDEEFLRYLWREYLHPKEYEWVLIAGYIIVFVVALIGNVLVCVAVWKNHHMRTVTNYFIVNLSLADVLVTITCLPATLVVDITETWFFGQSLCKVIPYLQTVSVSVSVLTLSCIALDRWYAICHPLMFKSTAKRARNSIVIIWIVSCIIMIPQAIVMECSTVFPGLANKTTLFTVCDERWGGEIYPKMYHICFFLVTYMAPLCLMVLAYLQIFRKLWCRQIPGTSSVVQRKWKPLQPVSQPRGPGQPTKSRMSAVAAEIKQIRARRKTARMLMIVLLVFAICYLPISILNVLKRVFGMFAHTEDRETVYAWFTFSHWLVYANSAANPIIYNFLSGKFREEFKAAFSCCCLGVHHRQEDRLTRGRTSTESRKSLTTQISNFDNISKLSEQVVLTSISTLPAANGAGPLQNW

IC50 (human orexin-2 receptor) | IC50 [1] | SMILES
13 nM | 1170 nM | CCN(CCn1nc(C)c(C(C)(C)O)n1)C(=O)c1ccccc1C1CCC1 [Example 40, 2-cyclobutyl-N-ethyl-N-(2-(4-(2-hydroxypropan-2-yl)-5-methyl-2H-1,2,3-triazol-2-yl)ethyl)benzamide]
15 nM | 2100 nM | CCN(CCn1nc(C)c(C(C)(C)O)n1)C(=O)c1ccccc1N1CCCC1 [Example 41, N-ethyl-N-(2-(4-(2-hydroxypropan-2-yl)-5-methyl-2H-1,2,3-triazol-2-yl)ethyl)-2-(pyrrolidin-1-yl)benzamide]
29 nM | > 10000 nM | CCN(CCn1nc(C)c(C(C)(C)O)n1)C(=O)c1ccccc1-n1ncnn1 [Example 42, N-ethyl-N-(2-(4-(2-hydroxypropan-2-yl)-5-methyl-2H-1,2,3-triazol-2-yl)ethyl)-2-(2H-tetrazol-2-yl)benzamide]
180 nM | > 10000 nM | CCN(CCn1nc(C)c(C(C)(C)O)n1)C(=O)c1ncccc1-n1nccn1 [Example 43, N-ethyl-N-(2-(4-(2-hydroxypropan-2-yl)-5-methyl-2H-1,2,3-triazol-2-yl)ethyl)-3-(2H-1,2,3-triazol-2-yl)picolinamide]
106 nM | > 10000 nM | CCN(CCn1nc(C)c(C(C)(C)O)n1)C(=O)c1ncccc1-c1ccccc1 [Example 44, N-ethyl-N-(2-(4-(2-hydroxypropan-2-yl)-5-methyl-2H-1,2,3-triazol-2-yl)ethyl)-3-phenylpicolinamide]
87 nM | > 10000 nM | CCN(CCn1nc(C)c(C(C)(C)O)n1)C(=O)c1nccnc1-c1ccccn1 [Example 45, N-ethyl-N-(2-(4-(2-hydroxypropan-2-yl)-5-methyl-2H-1,2,3-triazol-2-yl)ethyl)-3-(pyridin-2-yl)pyrazine-2-carboxamide]
239 nM | > 10000 nM | CCN(CCn1nc(C)c(C(C)(C)O)n1)C(=O)c1nccnc1-n1cccn1 [Example 47, N-ethyl-N-(2-(4-(2-hydroxypropan-2-yl)-5-methyl-2H-1,2,3-triazol-2-yl)ethyl)-3-(1H-pyrazol-1-yl)pyrazine-2-carboxamide]
13 nM | 7520 nM | CCN(CCn1nc(C)c(C(C)(C)O)n1)C(=O)c1cccnc1-n1cccn1 [Example 48, N-ethyl-N-(2-(4-(2-hydroxypropan-2-yl)-5-methyl-2H-1,2,3-triazol-2-yl)ethyl)-2-(1H-pyrazol-1-yl)nicotinamide]
35 nM | > 10000 nM | CCN(CCn1cc(C(C)(C)O)cn1)C(=O)c1ccccc1-n1nccn1 [Example 49, N-Ethyl-N-{2-[4-(1-hydroxy-1-methylethyl)-1H-pyrazol-1-yl]ethyl}-2-(2H-1,2,3-triazol-2-yl)benzamide]
23 nM | > 10000 nM | CCN(CCn1ccc(C(C)(C)O)n1)C(=O)c1ccccc1-n1nccn1 [Example 50, N-Ethyl-N-{2-[3-(1-hydroxy-1-methylethyl)-1H-pyrazol-1-yl]ethyl}-2-(2H-1,2,3-triazol-2-yl)benzamide]
